# Assay results from patent publication US10537100B2, “Substituted methylenedioxybenzyl compounds and their use as synergists” (Endura SPA, priority 2015, dated 2020).
# Test system: Musca domestica
# Assay: Contact test on treated glass surfaces, synergist with cypermethrin
# Type: in vivo
# Conditions: in combination with cypermethrin
# Protocol: Laboratory bred Musca domestica species, 4-5 days old mixed sex imagoes derived from a field collected strain were assayed for the test. 1000 ml of test solutions were prepared diluting in water 6.06 grams of cypermethrin commercial formulation, equivalent to 0.224 g of cypermethrin per liter of insecticidal solution and a suitable amount of synergist such as to have a ratio between cypermethryn and synergists=1:13. The synergists were formulated in the form of emulsified concentrate (EC). The following amount of the formulations of synergist EC were added to the above described insecticidal solution of cypermethrin.
# 3.83 g of EC formulation containing 77.1% (w/w) of the compound of Example 2 (5-n-butyl-6-((prop-2-ynyloxy)methyl)benzo[d][1,3]dioxole)
# 3.57 g of EC formulation containing 83% (w/w) of the comparison compound 5-(but-2-ynyloxymethyl)-6-n-propyl-benzo[1,3]dioxole (EN126) corresponding to 2.95 g of the compound of the invention and of the comparison product per liter of test formulation
# 1 ml of each test formulation was applied to each individual grass surface of 100 cm^2 by means of a hand held pump sprayer on a scale measuring by 2 decimal precision, being the acceptable limit of divergence: +/−10%. The treated glass surfaces were left at room temperature for 24 hours after treatment and prior to be used. 40 mixed sex Musca domestica imagoes (20 males and 20 females) were selected and placed into a 500 cm^3 glass cylinders covered with an untreated glass surface until the start of the study. Five replicates were executed, altogether 200 houseflies (100 males and 100 females) were used per test formulation. At the beginning of the test, the untreated glass covering the glass cylinder was replaced with a glass surface treated with the test formulation. The exposure time was 30 minutes. After this period of time, the treated glass surfaces were removed and replaced with untreated ones. During the test water and food (water/sugar solution) were provided to the test insect inside the glass cylinders
# In parallel with the test, the mortality of flies in an untreated control replicate was determined using the same conditions and methods. Throughout the control test, non-treated glass surfaces covered the glass cylinders. The maximum mortality rate allowed within the control group to consider the test representative was 10% after 24 hours. If above this value, the test was not considered representative and was repeated. During the trials, no deviance has been noted.
# The test conditions were as follows: • temperature: 23-25° C. • relative humidity: min. 60% • light regime: 12 hrs dark/12 hrs natural illumination.
# The reading intervals of the number of knocked down flies were: 10-20-30-40-50-60-90-120-180 minutes. Mortality was determined after 24 hours.
# The efficacy was calculated according the following formula
compound,measurement,setting,value
"C#CCOCc1cc2c(cc1CCCC)OCO2 [Compound of Example 2, 5-n-butyl-6-((prop-2-ynyloxy)methyl)benzo[d][1,3]dioxole]",efficacy compared with comparison product EN126,,better efficacy
same,knock down activity compared with comparison product EN126,clearly notable at short times,better knock down activity
